Patent US20200270309A1, “MALEIMIDE GROUP-MODIFIED ANGIOGENESIS INHIBITOR HM-1 AND USE THEREOF” (NANJING ANJI BIOLOGICAL TECHNOLOGY CO., LTD, priority 2017, published 2020)
Peptide text beside a SMILES is read from it. * marks the point of attachment. X74 = O=C1C=CC(=O)N1c1cccc(CCCCCCCCCCC(=O)*)c1; X59 = O=C1C=CC(=O)N1c1cccc(CCCCCCCCC(=O)*)c1; X61 = O=C1C=CC(=O)N1c1cccc(CCCC(=O)*)c1

Columns and labels:
[1] = tested on: IL-1β production by mouse peritoneal macrophages; experiment: IL-1β production by mouse peritoneal macrophages (ELISA); type: cell-based; details: for Inhibition rate: IL-1β production, vs model group; for IL-1β: mouse peritoneal macrophages, 48 h, ELISA
Protocol: Mice were injected intraperitoneally with 1 mL of broth culture medium (containing 6% of starch). Three days later, mice peritoneal macrophages were taken aseptically and washed twice with 1640 culture medium, and the cell concentration was adjusted to 2×10^6 cells/mL. The solutions were injected into 24-well culture plates at 1 mL per well. The cells were incubated in a cell incubator for 3 h and vibrated once every 30 min to make the cells fully adhere to the wall. Then, the cells were washed twice with a culture solution to remove non-adhered cells. PBS was added to the blank group, positive drug Dex was added to the positive group, no drug was added to the model group, and polypeptides X1-X90 with low, medium and high concentrations were added to the test groups; and the cells were continuously cultured for 48 h after administration, and then centrifuged at 1000 r/min for 15 min. The supernatant was collected as a sample to be tested for IL-1β activity.

[2] = tested on: retinal vascular endothelial nuclei; experiment: Neovascularization in a rat model of premature retinopathy; type: in vivo, rats; details: dose 0.05 μM in the vitreous chamber from day 7 of modeling for one week; counted on day 14; oxygen-induced neonatal rats
Protocol: Using a fluctuating oxygen-induced animal model, newborn rats born naturally on the same day (within 12 h) were randomly divide into three groups: an oxygen model group, an oxygen treatment group and a normal control group. The oxygen model was further divided into three sub-group model groups, and the sub-group model groups and the treatment group were all placed in a semi-closed oxygen chamber made of organic glass; medical oxygen was introduced into the chamber, and the concentration was adjusted to 80%±2% by an oxygen meter; nitrogen was introduced into the oxygen chamber after 24 h, and the oxygen concentration was adjusted to 10%±2% rapidly and maintained for 24 h. This was repeated to keep the oxygen concentration in the oxygen chamber alternating between 80% and 10% every 24 h, the oxygen concentration was maintained for 7 d, and then the rats were fed in the air. The oxygen concentration was monitored 8 times a day, and the ambient temperature in the chamber was controlled at 23° C.±2° C. Bedding was replaced, feed was added, and water and mother rats were replaced once. The normal control group was placed in the animal room feeding environment. […] The oxygen treatment group was divided into three subgroups. On day 7 of modeling, X1-[…], […]-[…] and […]-X90 were injected in the vitreous chamber respectively, and the oxygen model group and the control group were only given normal saline for one week. On day 14, after the rats were anesthetized by diethyl ether and killed, eyeballs were extracted and fixed in 40 g/L paraformaldehyde solution for 24 h. Gradient dehydration by alcohol was performed, and the eyeballs were processed by xylene to be transparent. After waxing, the eyeballs were sectioned continuously to a thickness of 4μm, and the periphery of the optic disc should be avoided as much as possible. The sections were parallel to the sagittal plane from cornea to the optic disc. Ten sections of each eyeball were randomly taken and stained with hematoxylin eosin, the number of vascular endothelial nuclei that broke through the inner limiting membrane of the retina (only the number of vascular endothelial nuclei closely related to the inner limiting membrane were counted) was counted, and statistics of the average number of cells per section per eyeball was performed. Results: In the control group, there were no vascular endothelial nuclei that broke through the inner limiting membrane of the retina and grew into vitreous body, or the vascular endothelial nuclei were occasionally found in only a few sections. In the model group, there were many vascular endothelial nuclei that broke through the inner limiting membrane of the retina, some appeared alone, and some appeared in clusters. At the same time, on some sections, these vascular endothelial nuclei were also found adjacent to deep retinal vessels, confirming that they originated from the retina rather than the vitreous body or other ocular tissues. In the treatment group, only a few vascular endothelial nuclei that broke through the inner limiting membrane of retina could be seen in the sections.

splenic lymphocytes = experiment: Proliferation of splenic lymphocytes in mice (ConA, MTT); type: cell-based; details: ConA-stimulated mouse splenic lymphocytes, 48 h
Protocol: Spleens of mice were taken out under aseptic conditions, washed with blank 1640 culture medium 3 times, ground with a 5 mL syringe core, filtered with a 200-mesh sieve, made into a single cell suspension. The suspension was centrifuged (1000 rpm×5 min), and supernatant was removed. Red blood cells were lysed by Tris-NH4Cl, and placed in ice water bath for 4 min and centrifuged (1000 rpm×5 min). The supernatant was removed, and the cells were washed twice with sterile PBS. Finally, RPMI 1640 culture solution (5 mL) containing 10% calf serum was added to suspend the cells. The cells were counted and the cell concentration was adjusted to 5×10^6 cells/mL, and the cells were cultured in a 96-well culture plate.
Blank control group, concanavalin A (ConA) group and dexamethasone (Dex) group were set in the experiment, and polypeptide X1-X90 groups were set as test groups. After 100 μL of splenic lymphocytes suspension per well was added into each group, 100 μL of blank 1640 culture solution was added into the blank control group, ConA was added into the ConA group, Dex was added into the Dex group, and ConA was added into the test groups on the basis of adding different concentrations of polypeptides X1-X90. The cells were static cultured at 37° C. in a cell incubator for 48 h. After the cultivation was completed, 20 μL of MTT was added to each well, and the cultivation was continued for 4 h. Finally, all the solutions in each well were discarded. 100 μL DMSO was added to each well and shaken, and the OD value at 570 nm was detected with a microplate reader. Five parallel experiments were set in each well.

Row | Structure (SMILES) | Inhibition rate ([1]; dose 0.05 μM) | IL-1β ([1]; dose 0.05 μM) | Inhibition rate ([1]; dose 0.1 μM) | IL-1β ([1]; dose 0.1 μM) | Inhibition rate ([1]; dose 0.2 μM) | IL-1β ([1]; dose 0.2 μM) | Nuclei count (retinal vascular endothelial nuclei, average per section per eyeball) [2] | A570 nm/A630 nm (splenic lymphocytes; polypeptide dose 0.05 μM) | Inhibition rate (%) (splenic lymphocytes; polypeptide dose 0.05 μM) | A570 nm/A630 nm (splenic lymphocytes; polypeptide dose 0.1 μM) | Inhibition rate (%) (splenic lymphocytes; polypeptide dose 0.1 μM) | A570 nm/A630 nm (splenic lymphocytes; polypeptide dose 0.2 μM) | Inhibition rate (%) (splenic lymphocytes; polypeptide dose 0.2 μM)
1 | C[C@H](NC(=O)CNC(=O)[C@H](CCCNC(=N)N)NC(=O)CCCCCCCCCCc1cccc(N2C(=O)C=CC2=O)c1)C(=O)N[C@@H](CC(=O)O)C(=O)N[C@@H](CCCNC(=N)N)C(=O)N[C@@H](C)C(=O)NCC(=O)NCC(=O)NCC(=O)NCC(=O)N[C@@H](CCCNC(=N)N)C(=O)NCC(=O)N[C@@H](CC(=O)O)C(=O)O [X34] (X74-RGADRAGGGGRGD-OH) | 18.47% | 767.28 ± 18.52 pg/mL | 19.97% | 753.21 ± 13.97 pg/mL | 28.14% | 676.31 ± 16.02 pg/mL | 7.292 ± 3.827 | 0.5469 ± 0.0655 | 19.03% | 0.4573 ± 0.1104 | 32.29% | 0.4431 ± 0.1192 | 34.39%
2 | C[C@H](NC(=O)CNC(=O)[C@H](CCCNC(=N)N)NC(=O)CCCc1cccc(N2C(=O)C=CC2=O)c1)C(=O)N[C@@H](CC(=O)O)C(=O)N[C@@H](CCCNC(=N)N)C(=O)N[C@@H](C)C(=O)NCC(=O)NCC(=O)NCC(=O)NCC(=O)N[C@@H](CCCNC(=N)N)C(=O)NCC(=O)N[C@@H](CC(=O)O)C(=O)O [X27] (X61-RGADRAGGGGRGD-OH) | 25.91% | 697.32 ± 17.18 pg/mL | 30.97% | 649.68 ± 18.74 pg/mL | 33.62% | 624.72 ± 14.38 pg/mL | 8.358 ± 1.328 | 0.5388 ± 0.0643 | 20.23% | 0.5231 ± 0.0967 | 22.55% | 0.4792 ± 0.0849 | 29.08%
3 | C[C@H](NC(=O)CNC(=O)[C@H](CCCNC(=N)N)NC(=O)CCCCCCCCc1cccc(N2C(=O)C=CC2=O)c1)C(=O)N[C@@H](CC(=O)O)C(=O)N[C@@H](CCCNC(=N)N)C(=O)N[C@@H](C)C(=O)NCC(=O)NCC(=O)NCC(=O)NCC(=O)N[C@@H](CCCNC(=N)N)C(=O)NCC(=O)N[C@@H](CC(=O)O)C(=O)O [X32] (X59-RGADRAGGGGRGD-OH) | 18.02% | 771.56 ± 13.41 pg/mL | 28.17% | 676.06 ± 19.82 pg/mL | 43.31% | 533.56 ± 18.54 pg/mL | 8.394 ± 2.665 | 0.6117 ± 0.0672 | 9.43% | 0.5954 ± 0.0678 | 11.84% | 0.5428 ± 0.0408 | 19.63%
